Experimental data reported in PubChem BioAssay AID256 (DTP/NCI, 2004).
Where “and” joins values, the source holds several entries; their conditions need not be identical. Equal entries are not always repeated. Inconclusive results and toxic doses are left out. Rule for the calls: active = survival T/C of 150% or more; inactive = T/C below 125% in these data.

Test system: CD2F1 mice, L1210 leukemia ip, survival T/C
Experiment: NCI In Vivo Anticancer Drug Screen. Data for tumor model L1210 Leukemia (intraperitoneal) in CD2F1 (CDF1) mice
Conditions: higher = longer survival
Procedure, shortened: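 In this screen, transplantable tumors were grown in mice given either the compound or its vehicle. Results were expressed as the treated measurement relative to the control measurement.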

[1] = endpoint: mean survival time, dose: 75.0 mg/kg/injection, schedule: Q01DX001 (ip), vehicle: saline
[2] = endpoint: mean survival time, dose: 150.0 mg/kg/injection, schedule: Q01DX001 (ip), vehicle: saline
[3] = endpoint: mean survival time, dose: 300.0 mg/kg/injection, schedule: Q01DX001 (ip), vehicle: saline
[4] = endpoint: mean survival time, dose: 100.0 mg/kg/injection, schedule: Q01DX001 (ip), vehicle: saline with Tween-80
[5] = endpoint: mean survival time, dose: 200.0 mg/kg/injection, schedule: Q01DX001 (ip), vehicle: saline with Tween-80
[6] = endpoint: mean survival time, dose: 400.0 mg/kg/injection, schedule: Q01DX001 (ip), vehicle: saline with Tween-80
[7] = endpoint: mean survival time, dose: 100.0 mg/kg/injection, schedule: Q01DX009 (ip), vehicle: saline with Tween-80
[8] = endpoint: mean survival time, dose: 100.0 mg/kg/injection, schedule: Q04DX003 (ip), vehicle: saline with Tween-80
[9] = endpoint: mean survival time, dose: 200.0 mg/kg/injection, schedule: Q01DX009 (ip), vehicle: saline with Tween-80
[10] = endpoint: mean survival time, dose: 200.0 mg/kg/injection, schedule: Q04DX003 (ip), vehicle: saline with Tween-80
[11] = endpoint: mean survival time, dose: 400.0 mg/kg/injection, schedule: Q01DX009 (ip), vehicle: saline with Tween-80
[12] = endpoint: mean survival time, dose: 400.0 mg/kg/injection, schedule: Q04DX003 (ip), vehicle: saline with Tween-80
[13] = endpoint: mean survival time, dose: 100.0 mg/kg/injection, schedule: Q01DX009 (ip), vehicle: saline
[14] = endpoint: mean survival time, dose: 200.0 mg/kg/injection, schedule: Q01DX009 (ip), vehicle: saline
[15] = endpoint: mean survival time, dose: 400.0 mg/kg/injection, schedule: Q01DX009 (ip), vehicle: saline

Measured: T/C

CN(C=O)NC(=O)Nc1ccccc1
inactive: [1] 100 % of control | [2] 100 % of control | [3] 102 % of control

O=[N+]([O-])c1ccc(OCc2ccccc2)nc1
inactive: [4] 86 % of control | [5] 100 % of control | [6] 93 % of control

COC(=O)CC(=O)c1ccc(OC(C)C)cc1
inactive: [7] 100 % of control | [8] 87 % of control | [9] 107 % of control | [10] 90 % of control | [11] 104 % of control | [12] 87 % of control

CC(=O)OC1C(O)C(O)C(OC(C)=O)C(OC(C)=O)C1OC(C)=O (configuration not stated)
inactive: [13] 102 % of control | [14] 102 % of control | [15] 98 % of control

COc1ccc(SSc2ccc(OC)cc2)cc1
inactive: endpoint: mean survival time, dose: 100.0 mg/kg/injection, schedule: Q01DX001 (ip), vehicle: saline 100 % of control | endpoint: mean survival time, dose: 200.0 mg/kg/injection, schedule: Q01DX001 (ip), vehicle: saline 103 % of control | endpoint: mean survival time, dose: 400.0 mg/kg/injection, schedule: Q01DX001 (ip), vehicle: saline 97 % of control

CCCCCCCC(=O)Nc1ccc(C)c(C)c1
inactive: [7] 89 % of control | [9] 91 % of control | [11] 96 % of control

CCCCC1(C2CCCC2)NC(C)(C)CC(C)O1 (configuration not stated)
inactive: endpoint: mean survival time, dose: 100.0 mg/kg/injection, schedule: Q04DX003 (ip), vehicle: saline 97 % of control | endpoint: mean survival time, dose: 200.0 mg/kg/injection, schedule: Q04DX003 (ip), vehicle: saline 96 % of control | endpoint: mean survival time, dose: 400.0 mg/kg/injection, schedule: Q04DX003 (ip), vehicle: saline 89 % of control

C[N+](C)(C)CCOC(=O)Nc1ccc(C(c2ccc(NC(=O)OCC[N+](C)(C)C)cc2)c2ccc(NC(=O)OCC[N+](C)(C)C)cc2)cc1
inactive: endpoint: mean survival time, dose: 0.25 mg/kg/injection, schedule: Q04DX003 (ip), vehicle: saline with Tween-80 97 % of control | endpoint: mean survival time, dose: 0.5 mg/kg/injection, schedule: Q04DX003 (ip), vehicle: saline with Tween-80 96 % of control | endpoint: mean survival time, dose: 1.0 mg/kg/injection, schedule: Q04DX003 (ip), vehicle: saline with Tween-80 94 % of control

CCCc1cc(C(C)=O)c[n+](C2OC(COC(=O)c3ccccc3)C(OC(=O)c3ccccc3)C2O)c1 (configuration not stated)
inactive: endpoint: mean survival time, dose: 3.13 mg/kg/injection, schedule: Q01DX005 (ip), vehicle: distilled water + Tween-80 109 % of control | endpoint: mean survival time, dose: 6.25 mg/kg/injection, schedule: Q01DX005 (ip), vehicle: distilled water + Tween-80 92 % of control | endpoint: mean survival time, dose: 12.5 mg/kg/injection, schedule: Q01DX005 (ip), vehicle: distilled water + Tween-80 93 % of control | endpoint: mean survival time, dose: 25.0 mg/kg/injection, schedule: Q01DX005 (ip), vehicle: distilled water + Tween-80 89 % of control | endpoint: mean survival time, dose: 50.0 mg/kg/injection, schedule: Q01DX005 (ip), vehicle: distilled water + Tween-80 90 % of control and 97 % of control

CC(C)NC(=O)c1ccc(N/N=[N+](/C)[O-])cc1
inactive: endpoint: mean survival time, dose: 6.25 mg/kg/injection, schedule: Q01DX005 (ip), vehicle: saline with Tween-80 98 % of control | endpoint: mean survival time, dose: 12.5 mg/kg/injection, schedule: Q01DX005 (ip), vehicle: saline with Tween-80 100 % of control | endpoint: mean survival time, dose: 25.0 mg/kg/injection, schedule: Q01DX005 (ip), vehicle: saline with Tween-80 107 % of control | endpoint: mean survival time, dose: 50.0 mg/kg/injection, schedule: Q01DX005 (ip), vehicle: saline with Tween-80 100 % of control | endpoint: mean survival time, dose: 100.0 mg/kg/injection, schedule: Q01DX005 (ip), vehicle: saline with Tween-80 109 % of control | [7] 107 % of control | [8] 94 % of control | [9] 110 % of control | [10] 100 % of control | [11] 117 % of control | [12] 110 % of control

CCCCCC(C[N+](C)(C)C)C(=O)/C=C/c1ccc(Cl)cc1 (configuration not stated)
inactive: endpoint: mean survival time, dose: 12.0 mg/kg/injection, schedule: Q01DX009 (ip), vehicle: Klucel (hydroxypropylcellulose) (HPC) 96 % of control | endpoint: mean survival time, dose: 25.0 mg/kg/injection, schedule: Q01DX009 (ip), vehicle: Klucel (hydroxypropylcellulose) (HPC) 96 % of control | endpoint: mean survival time, dose: 50.0 mg/kg/injection, schedule: Q01DX009 (ip), vehicle: Klucel (hydroxypropylcellulose) (HPC) 96 % of control

O=S1(=O)CC=CC1
inactive: [7] 98 % of control | endpoint: mean survival time, dose: 100.0 mg/kg/injection, schedule: Q04DX003 (ip), vehicle: saline sonified 103 % of control | [9] 101 % of control | endpoint: mean survival time, dose: 200.0 mg/kg/injection, schedule: Q04DX003 (ip), vehicle: saline sonified 106 % of control | [11] 101 % of control | endpoint: mean survival time, dose: 400.0 mg/kg/injection, schedule: Q04DX003 (ip), vehicle: saline sonified 95 % of control

O=C(O)COc1ccc(Cl)cc1Cl.[Cr]
inactive: endpoint: mean survival time, dose: 100.0 mg/kg/injection, schedule: Q04DX002 (ip), vehicle: saline with Tween-80 94 % of control | endpoint: mean survival time, dose: 200.0 mg/kg/injection, schedule: Q04DX002 (ip), vehicle: saline with Tween-80 87 % of control | endpoint: mean survival time, dose: 400.0 mg/kg/injection, schedule: Q04DX002 (ip), vehicle: saline with Tween-80 102 % of control

NC(=S)N/N=C1/CCN2CCCc3cccc1c32
inactive: endpoint: mean survival time, dose: 5.0 mg/kg/injection, schedule: Q01DX001 (ip), vehicle: saline with Tween-80 98 % of control | endpoint: mean survival time, dose: 10.0 mg/kg/injection, schedule: Q01DX001 (ip), vehicle: saline with Tween-80 97 % of control | endpoint: mean survival time, dose: 20.0 mg/kg/injection, schedule: Q01DX001 (ip), vehicle: saline with Tween-80 98 % of control

O=C1c2ccccc2C(=O)N1Cc1ccc([N+](=O)[O-])cc1Cl
inactive: endpoint: mean survival time, dose: 50.0 mg/kg/injection, schedule: Q01DX009 (ip), vehicle: saline with Tween-80 87 % of control | [7] 98 % of control | [9] 94 % of control

C[N+](C)(C)CCO
inactive: [13] 96 % of control | [14] 102 % of control | [15] 90 % of control

O=[N+]([O-])c1ccccc1NC(Nc1ccccc1[N+](=O)[O-])C(Cl)(Cl)Cl
inactive: [7] 98 % of control | [9] 101 % of control | [11] 101 % of control

Oc1ccc(/C=N\N=C\c2ccc(O)cc2)cc1
inactive: [7] 86 % of control | [8] 96 % of control | [9] 86 % of control | [10] 89 % of control | [11] 91 % of control | [12] 96 % of control

CCCCCCCCN(CCCCCCCC)CC(O)c1ccc2c(c1)Sc1ccccc1O2 (configuration not stated)
inactive: [1] 93 % of control | [2] 90 % of control

CCC(CC)n1c(C)cc(=O)n1C(CC)CC
inactive: endpoint: mean survival time, dose: 5.0 mg/kg/injection, schedule: Q01DX001 (ip), vehicle: saline 97 % of control | endpoint: mean survival time, dose: 10.0 mg/kg/injection, schedule: Q01DX001 (ip), vehicle: saline 97 % of control | endpoint: mean survival time, dose: 20.0 mg/kg/injection, schedule: Q01DX001 (ip), vehicle: saline 95 % of control

[C-]#[O+].[Cl][Sn]([Cl])[Cl].[Cl][Sn]([Cl])[Cl].[Pt].c1ccc([PH+](c2ccccc2)c2ccccc2)cc1.c1ccc([PH+](c2ccccc2)c2ccccc2)cc1
inactive: endpoint: median survival time, dose: 3.12 mg/kg/injection, schedule: Q04DX003 (ip), vehicle: saline with Tween-80 108 % of control | endpoint: median survival time, dose: 6.25 mg/kg/injection, schedule: Q04DX003 (ip), vehicle: saline with Tween-80 106 % of control | endpoint: median survival time, dose: 12.5 mg/kg/injection, schedule: Q04DX003 (ip), vehicle: saline with Tween-80 110 % of control | endpoint: median survival time, dose: 25.0 mg/kg/injection, schedule: Q04DX003 (ip), vehicle: saline with Tween-80 113 % of control | endpoint: median survival time, dose: 50.0 mg/kg/injection, schedule: Q04DX003 (ip), vehicle: saline with Tween-80 110 % of control | endpoint: median survival time, dose: 100.0 mg/kg/injection, schedule: Q04DX003 (ip), vehicle: saline with Tween-80 112 % of control | endpoint: median survival time, dose: 200.0 mg/kg/injection, schedule: Q04DX003 (ip), vehicle: saline with Tween-80 108 % of control

CCC1COCC1Cc1cncn1C (configuration not stated)
inactive: [1] 97 % of control | [2] 101 % of control | [3] 100 % of control

O=CN(O)CC(=O)O.[Cu]
inactive: endpoint: mean survival time, dose: 3.12 mg/kg/injection, schedule: Q01DX009 (ip), vehicle: acetone 95 % of control | endpoint: mean survival time, dose: 6.25 mg/kg/injection, schedule: Q01DX009 (ip), vehicle: acetone 101 % of control | endpoint: mean survival time, dose: 12.5 mg/kg/injection, schedule: Q04DX003 (ip), vehicle: saline 100 % of control

CCCCOS(=O)OCCCC
inactive: [4] 106 % of control | [5] 102 % of control | [6] 97 % of control

C[N+](C)(C)C.[Cl][Fe]([Cl])([Cl])[Cl]
inactive: endpoint: mean survival time, dose: 3.13 mg/kg/injection, schedule: Q01DX009 (ip), vehicle: saline 94 % of control | endpoint: mean survival time, dose: 6.25 mg/kg/injection, schedule: Q01DX009 (ip), vehicle: saline 97 % of control | endpoint: mean survival time, dose: 12.5 mg/kg/injection, schedule: Q01DX009 (ip), vehicle: saline 91 % of control
